Reference: patent US8828696B2, “Use of Penicillin G Procaine as a selective antimicrobial agent in the production of alcohol by fermentation” (Lallemand Specialites, Inc, priority 2008, dated 2014)

System: Lactobacillus fermentum
Test: Comparative efficacy analysis Virginiamycin vs. Penicillin G Procaine, growth in MRS broth, 24 well plate
Type: cell-based
Conditions: industry isolated Lactobacillus fermentum; ppm of the fermentation mixture
Source text: The most commonly found microorganism in fuel ethanol producing plants is the Lactobacillus fermentum bacterium and is considered as an “industry normal” bacterium. This example compares the use of a Bactenix® line of products, Penicillin G Procaine-antibiotic versus Virginiamycin-antibiotic to control “industry normal” Lactobacillus fermentum bacterium. This trial uses an alcohol water mixture to assure total dissolving of antibiotics. This assures that the correct concentrations of antibiotics are going into the test wells and thereby preventing under dosing during the trial. All bacteria tested were industry specific isolates that were obtained from actual corn mash samples from fermentation alcohol production plants. The trial was set up as follows: • 1. Dissolve 0.1 g of each of the antibiotics in 1 ml water and then add 5 ml of ethanol, vortex and bring up to 10 ml with sterile water to from a suspension. • 2. Dilute the previous suspension 1:10 with sterile water. This gives a one mg/ml concentration. • 3. Filter the suspension by running through a 0.2 μm syringe filter. • 4. Add four μl broth in a centrifuge then add antibiotics to MRS (DeMan, Rogosa and Sharpe) broth at the concentrations required for the test. • 5. Take four μl of a fresh 24-hour culture of the target organisms and add to the corresponding empty wells in a pre-labeled 24 well tissue culture plate. • 6. Pipette one ml of the appropriate antibiotic media to each well of the plate. • 7. Incubate at 33° C. for 24 hours. • 8. Read plates for bacterial growth and re-incubate the plates at 33° C. • 9. After 48 hours read and report the final results.

CC1(C)S[C@@H]2[C@H](NC(=O)Cc3ccccc3)C(=O)N2[C@H]1C(=O)O.CCN(CC)CCOC(=O)c1ccc(N)cc1 [Penicillin G Procaine]
minimum inhibitory concentration: 0.1 ppm
